According to ChEMBL document CHEMBL1150909, “Magnone A and B, novel anti-PAF tetrahydrofuran lignans from the flower buds of Magnolia fargesii” (J Nat Prod, 1998):
pIC50: −log10 of the molar value.

How the values were obtained:
[1] = Displacement of [3H]PAF from rabbit PAF receptor by liquid scintillation counting; design: species or system Oryctolagus cuniculus
[2] = species: Oryctolagus cuniculus; assay: Displacement of [3H]PAF from rabbit PAF receptor at 100 uM by liquid scintillation counting
[3] = species: Oryctolagus cuniculus; assay: Displacement of [3H]PAF from rabbit PAF receptor at 50 uM by liquid scintillation counting
[4] = species: Oryctolagus cuniculus; assay: Displacement of [3H]PAF from rabbit PAF receptor at 25 uM by liquid scintillation counting
[5] = species: Oryctolagus cuniculus; assay: Displacement of [3H]PAF from rabbit PAF receptor at 12.5 uM by liquid scintillation counting

Compound	pIC50 [1]	Activity [2] [%]	Activity [3] [%]	Activity [4] [%]	Activity [5] [%]
C[C@@H]1C(=O)O[C@H]2[C@H](O)[C@@]34[C@H]5C[C@@H](C(C)(C)C)[C@]36[C@@H](OC(=O)[C@@H]6O)O[C@@]4(C(=O)O5)[C@@]12O [GINKOLIDE B]	4.72				
COc1ccc(C(=O)[C@H]2CO[C@H](c3ccc(OC)c(OC)c3)[C@H]2CO)cc1OC [MAGNONE A]	4.42	75.2	56.7	41.6	19.4
COc1ccc(C(=O)[C@H]2CO[C@H](c3cc(OC)c(OC)c(OC)c3)[C@H]2CO)cc1OC [MAGNONE B]	4.57	81.7	64.3	42.9	37.1
